Test results published in patent US8129527B2, “Analogs of dehydrophenylahistins and their therapeutic use” (Nereus Pharmacuticals, Inc., priority 2006, dated 2012).
Values after ≈ are worked out from the molar mass of the structure shown. Values joined by “and” are separate entries in the source; they are usually repeats but may differ in a detail not shown here. Equal entries are not always repeated.

What was measured:
[1] = test system: MES-SA/Dx5 multidrug resistant; experiment: Cell growth inhibition assay, resazurin (Example 11); format: cell-based, human
Protocol: (§1) Human uterine sarcoma (MES-SA; CRL-1976), its multidrug resistant derivative (MES-SA/Dx5; CRL-1977), human acute promyelocytic leukemia cells (HL-60; CCL-240) and its multidrug resistant derivative (HL-60/MX2; CRL-2257) were purchased from ATCC and maintained in appropriate culture media. The cells were cultured in an incubator at 37° C. in 5% CO2 and 95% humidified air.
(§2) For cell growth inhibition assays, MES-SA and MES-SA/Dx5 cells were both seeded at 3×10^3 cells/well in 90 μl complete media into 96 well (Corning; 3904) black-walled, clear-bottom tissue culture plates and the plates were incubated overnight to allow cells to establish and enter log phase growth. HL-60 and HL-60/MX2 cells were both seeded at 5×10^4 cells/well in 90 μl complete media into 96 well plates on the day of compound addition. 20 mM stock solutions of the compounds were prepared in 100% DMSO and stored at −80° C. […] Ten μl volumes of the 10× serial dilutions were added to the test wells in triplicate and the plates returned to the incubator for 48 hours. The final concentration of DMSO was 0.25% in all samples.
(§3) Following 48 hours of drug exposure, 10 μl of 0.2 mg/ml resazurin (obtained from Sigma-Aldrich Chemical Co.) in Mg^2+, Ca^2+ free phosphate buffered saline was added to each well and the plates were returned to the incubator for 3-6 hours. […] Resazurin dye in medium without cells was used to determine the background, which was subtracted from the data for all experimental wells.
(§4) The multidrug resistant MES-SA/Dx5 tumor cell line was derived from the human uterine sarcoma MES-SA tumor cell line and expresses elevated P-Glycoprotein (P-gp), an ATP dependent efflux pump. The data in Table 19 summarize the growth inhibitory effects of NPI-2421, NPI-2463, NPI-2503, NPI-2504 and NPI-2506 against MES-SA and its multidrug resistant derivative MES-SA/Dx5. Paclitaxel, a known substrate of the P-gp pump was included as a control.

[2] = test system: HL-60 human acute promyelocytic leukemia cells; experiment: as above; format: cell-based; settings: mean values of two independent experiments
Protocol: as §1, §2, §3
(§5) HL-60/MX2 is a multidrug resistant tumor cell line derived from the human promyelocytic leukemia cell line, HL-60 and expresses reduced topoisomerase II activity. The data presented in Table 20 summarize the growth inhibitory effects of NPI-2421, NPI-2463, NPI-2503, NPI-2504 and NPI-2506 against HL-60 and its multidrug resistant derivative HL-60/MX2. Mitoxantrone, the topoisomerase II targeting agent was included as a control.

B16-F10 melanoma = experiment: as above; format: cell-based; settings: Mus musculus, 48 hours, mean ± SD where n ≧ 3
Protocol: (§6) The growth inhibitory activity of NPI-2421, NPI-2463, NPI-2503 and NPI-2504 were determined against selected human (colorectal adenocarcinoma, HT-29; breast adenocarcinoma, MDA-MB-231; non-small cell lung carcinoma, NCI-H292 and prostate carcinomas, PC-3 and DU 145) and mouse (melanoma, B16-F10) tumor cell lines.
(§7) HT-29 (HTB-38), MDA-MB-231 (HTB-26), NCI-H292 (CRL-1848), B16-F10 (CRL-6475), PC-3 (CRL-1435) and DU 145 (HTB-81) cells were all purchased from the ATCC. The cell lines were maintained in their respective ATCC recommended culture media and cultured in an incubator at 37° C. in 5% CO2 and 95% humidified air.
(§8) 20 mM stock solutions of compounds were prepared in 100% DMSO and stored at −80° C. 10× concentrated serial dilutions of the compounds were prepared in B16-F10 cell culture medium for final concentrations ranging from 20 μM to […]. Ten μl volumes of the 10× serial dilutions were added to the test wells in triplicate and the plates returned to the incubator for 48 hours. The final concentration of DMSO was 0.25% in all samples.
as §3

PC-3 prostate carcinoma = experiment: as above; format: cell-based; settings: Homo sapiens, 48 hours, mean ± SD where n ≧ 3, ** n = 1
Protocol: as §6, §7, §8, §3

[3] = test system: NCI-H292 non-small cell lung carcinoma; experiment: as above; format: cell-based; settings: Homo sapiens, 48 hours, mean ± SD where n ≧ 3, ** n = 1
Protocol: as §6, §7, §8, §3

[4] = test system: HT-29 colorectal adenocarcinoma; experiment: as above; format: cell-based; settings: Homo sapiens, 48 hours, mean ± SD where n ≧ 3
Protocol: as §6, §7, §8, §3

[5] = test system: MDA-MB-231 breast adenocarcinoma; experiment: as above; format: cell-based; settings: Homo sapiens, 48 hours, mean ± SD where n ≧ 3
Protocol: as §6, §7, §8, §3

[6] = test system: HT-29 human colorectal carcinoma cells; experiment: Cell growth inhibition assay, resazurin (Table 3.2); format: cell-based; settings: Table 3.2, HT-29 cells, read-out: EC50 (M) Mean
Outline: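 HT-29 cells seeded at 5×10^3/well overnight, then exposed in triplicate to compounds at final 20 μM to […] (0.25% DMSO) for 48 h at 37° C. Viability read by resazurin reduction after 3-4 h further incubation, with cell-free dye background subtracted.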

[7] = test system: HL-60/MX2 multidrug resistant; experiment: Cell growth inhibition assay, resazurin (Example 11); format: cell-based, human
Protocol: as §1, §2, §3, §5

[8] = test system: MES-SA human uterine sarcoma; experiment: as above; format: cell-based; settings: mean ± standard deviation of three independent experiments
Protocol: as §1, §2, §3, §4

HuVEC = experiment: Action on microtubule function, α-tubulin staining; settings: 2 μM, thirty minutes exposure
[9] = test system: MCF-7 (Taxol Sensitive) human breast carcinoma; experiment: Drug resistant cell line pair, cytotoxicity (Example 10B); format: cell-based
From the text: (§9) 3). Human Breast Carcinoma Cell Line Pair: MCF-7 (Taxol Sensitive) and MCF-7/ADR (Taxol Resistant)

[10] = test system: MCF-7/ADR (Taxol Resistant) human breast carcinoma; experiment: as above; format: cell-based
From the text: as §9

[11] = test system: MES-SA (Taxol Sensitive) human uterine sarcoma; experiment: as above; format: cell-based; settings: IC50 CsA Pretreat relative to No CsA
From the text: (§10) 1) Human Uterine Sarcoma Tumor Cell Line Pair: MES-SA (Taxol Sensitive) and MES-SA/Dx5 (Taxol Resistant).

[12] = test system: MES-SA/Dx5 (Taxol Resistant) human uterine sarcoma; experiment: as above; format: cell-based
From the text: as §10

Trichophyton rubrum = experiment: Antifungal susceptibility testing, broth dilution (MIC/MFC); format: cell-based; settings: Trichophyton rubrum
Protocol: (§11) Specifically, disclosed compounds were evaluated alongside commercially available microtubulin inhibitors as well as recognized antifungal agents.
(§12) Microorganisms against which these compounds were tested included: Candida albicans, Candida glabrata, Aspergillus fumigatus, Trichophyton rubrum, Trichophyton mentagrophytes, Epidermophyton floccosum. With the exception of Candida glabrata (one isolate), two isolates of each species were tested.
(§13) The minimum lethal concentration (MLC) was determined by plating […] from the MIC concentration and each concentration above the MIC. […] When a MIC was obtained, a minimum fungicidal concentration (MFC) was determined to assess the fungistatic/fungicidal nature of the compound.

Aspergillus fumigatus = experiment: as above; format: cell-based; settings: Aspergillus fumigatus, A. fumigatus isolate #2; read-out: MIC
Protocol: as §11, §12, §13

Epidermophyton floccosum = experiment: as above; format: cell-based
Protocol: (§14) Specifically, disclosed compounds were evaluated alongside commercially available microtubulin inhibitors as well as recognized antifungal agents. […].
as §12
(§15) Drug concentrations were 0.03-16 μg/ml for the investigational compounds, 0.015-8 μg/ml for itraconazole and griseofulvin.
as §13, with “compound. […] The compound is scored as fungistatic if the cells are able to resume growth and fungicidal if no regrowth is possible because the compound had killed the organisms.” for “compound.”

[13] = test system: Trichophyton mentagrophytes; experiment: as above; format: cell-based; settings: Trichophyton mentagrophytes
Protocol: as §14, §12, §15
as §13, with “compound. […] The compound is scored as fungistatic if the cells are able to resume growth and fungicidal if no regrowth is possible because the compound had killed the organisms.” for “compound.”

CC(C)(C)c1ocnc1/C=c1\[nH]c(=O)/c(=C/c2c(F)c(F)cc(F)c2F)[nH]c1=O [Compound 2504, tBu-oxadelta-PLH-2,3,5,6-tetrafluoro]
EC50 ([1]; Homo sapiens, MES-SA/Dx5, mean ± standard deviation of three independent experiments): 14 ± 3 nM | cytotoxic activity against both MES-SA and MES-SA/Dx5 ([1]; in words): retained equivalent cytotoxic activity | Fold change ([1]; ratio of EC50 values (MES-SA/Dx5:MES-SA)): 1.1 | EC50 [2]: 30 nM | EC50 (B16-F10 melanoma): 14 ± 3 nM | EC50 (PC-3 prostate carcinoma): > 2000 nM | EC50 [3]: 42 nM | EC50 [4]: 11 nM | EC50 [5]: 17 nM | EC50 [6]: 1.48e-08 M | EC50 ([7]; Homo sapiens, HL60/MX2, HL-60/MX2, mean values of two independent experiments): 13 nM | cytotoxic activity against both HL-60 and HL-60/MX2 ([7]; in words): retained cytotoxic activity | Fold change ([7]; ratio of EC50 values (HL-60/MX2:HL-60)): 0.4 | EC50 [8]: 13 ± 3 nM

CC(=O)O[C@H]1C(=O)[C@@]2(C)[C@H]([C@H](OC(=O)c3ccccc3)[C@]3(O)C[C@H](OC(=O)[C@H](O)[C@@H](NC(=O)c4ccccc4)c4ccccc4)C(C)=C1C3(C)C)[C@]1(OC(C)=O)CO[C@@H]1C[C@@H]2O [Taxol, reference compound]
microtubule depolymerization in HuVEC cells (HuVEC): did not induce microtubule depolymerization | IC50 ([9]; Homo sapiens, MCF7/Taxol, Table 15, read-out: MCF-7 Sensitive IC50): 2.6 nM | potency in the sensitive MCF-7 cell line ([9]; in words): low nanomolar potency | IC50 ([10]; Homo sapiens, NCI/ADR-RES, read-out: MCF-7/ADR Resistant IC 50 nM, Table 15): > 100 nM | MCF-7/ADR Resistant Ratio to Sensitive ([10]; Table 15): >>38 | potency in resistant MCF-7/ADR vs sensitive MCF-7 ([10]; in words): virtually inactive in the resistant cell line | Ratio No CsA [11]: 0.6 and 0.4 | effect of Cyclosporin A (CsA) treatment ([12]; CsA pretreatment): restored the sensitivity to taxol | potency in the resistant MES-SA/DX5 line vs the sensitive line ([12]; in words): virtually inactive

COC1=CC(=O)C[C@@H](C)[C@]12Oc1c(Cl)c(OC)cc(OC)c1C2=O [griseofulvin, Griseofulvin, reference compound]
MIC (Trichophyton rubrum; T. rubrum isolate #1): 0.5 µg/mL (≈ 1.42 µM) | MIC (Trichophyton rubrum; T. rubrum isolate #2): < 0.015 µg/mL | MIC (Aspergillus fumigatus): 0.5 µg/mL (≈ 1.42 µM) | MIC (Epidermophyton floccosum; E. floccosum isolate #1): 2 µg/mL (≈ 5.67 µM) | MIC (Epidermophyton floccosum; E. floccosum isolate #2): 4 µg/mL (≈ 11.3 µM) | MIC ([13]; T. mentagrophytes isolate #1): 1 µg/mL (≈ 2.83 µM) | MIC ([13]; T. mentagrophytes isolate #2): 2 µg/mL (≈ 5.67 µM)
